Reference: the supplement of paper PMC10307832

Experiments:
Assay in all cases: relative viability (nuclei count vs DMSO), 5 days (fraction); higher = more cells survive
BAM7 + Olaparib = compound: CCOC1=CC=CC=C1N=NC2=C(NN(C2=O)C3=NC(=CS3)C4=CC=CC=C4)C [BAM7] + O=C(c1cc(Cc2n[nH]c(=O)c3ccccc23)ccc1F)N1CCN(C(=O)C2CC2)CC1 [Olaparib] (partner 8 µM)
Procedure, shortened: (§1)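 Relative viability was taken as the ratio of nuclei in treated wells to nuclei in vehicle wells. Lung cancer cell lines in 1536-well plates received compounds by pin tool one day after seeding, either one drug alone or a fixed anchor-drug dose plus five library-drug doses (not always all listed) in √10 steps. Nuclei were counted on 4× images after 5 days of treatment, and values are medians of duplicate plates.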

[1] = compound: CCn1c(-c2nonc2N)nc2c(C#CC(C)(C)O)ncc(OC[C@H]3CCCNC3)c21 + C[C@]1(O)C[C@@H](c2nc(-c3ccc4ccc(-c5ccccc5)nc4c3)c3c(N)nccn32)C1 [Linsitinib] (partner 1 µM)
Procedure, shortened: as §1

[2] = compound: CCn1c(-c2nonc2N)nc2c(C#CC(C)(C)O)ncc(OC[C@H]3CCCNC3)c21 + CC(C)C[C@H](NC(=O)[C@H](Cc1ccccc1)NC(=O)c1cnccn1)B(O)O [Bortezomib] (partner 0.002 µM)
Procedure, shortened: as §1

BAM7 + Alpelisib = compound: CCOC1=CC=CC=C1N=NC2=C(NN(C2=O)C3=NC(=CS3)C4=CC=CC=C4)C [BAM7] + Cc1nc(NC(=O)N2CCC[C@H]2C(N)=O)sc1-c1ccnc(C(C)(C)C(F)(F)F)c1 [Alpelisib] (partner 2 µM)
Procedure, shortened: as §1

Row | Cell Line | relative viability (BAM7 + Olaparib; first compound 0.5 µM) | relative viability (BAM7 + Olaparib; first compound 5 µM) | relative viability (BAM7 + Olaparib; first compound 15.81 µM) | relative viability (BAM7 + Olaparib; first compound 50 µM) | relative viability ([1]; first compound 0.01 µM) | relative viability ([1]; first compound 0.03162 µM) | relative viability ([1]; first compound 0.1 µM) | relative viability ([1]; first compound 0.3162 µM) | relative viability ([1]; first compound 1 µM) | relative viability ([2]; first compound 0.01 µM) | relative viability ([2]; first compound 0.03162 µM) | relative viability ([2]; first compound 0.1 µM) | relative viability ([2]; first compound 0.3162 µM) | relative viability ([2]; first compound 1 µM) | relative viability (BAM7 + Alpelisib; first compound 0.5 µM) | relative viability (BAM7 + Alpelisib; first compound 5 µM) | relative viability (BAM7 + Alpelisib; first compound 15.81 µM) | relative viability (BAM7 + Alpelisib; first compound 50 µM)
1 | NCI-H2023 | 0.475 | 0.45 | 0.363 | 0.387 | 0.683 | 0.664 | 0.708 | 0.446 | 0.569 | 0.924 | 0.977 | 0.904 | 0.861 | 0.912 | 0.639 | 0.507 | 0.502 | 0.485
2 | NCI-H2009 | 0.716 | 0.727 | 0.662 | 0.663 | 1.15 | 1.19 | 1.27 | 1.1 | 1.19 | 0.997 | 0.944 | 1.05 | 1.03 | 0.958 | 1.21 | 1.15 | 1.1 | 1.15
